The record followed here is US12441689B2 (EpiVario, Inc., priority 2019, dated 2025).

For the assay, the target named is human ACSS2 protein (Homo sapiens (Human), UniProt Q9NR19). As to the kind of experiment: ACSS2 Cell-Free Activity Assay (Cell-Free IC50). The settings on record: 10 nM human ACSS2 protein, 90 minutes at 37 C, pyrophosphatase-coupled, Biomol Green absorbance at 620 nm; read-out: ACSS2 Biochemical IC50. The text has this: ACSS2 Cell-Free Activity Assay (Cell-Free IC50)
human ACSS2 protein, sequence (Q9NR19 whole entry): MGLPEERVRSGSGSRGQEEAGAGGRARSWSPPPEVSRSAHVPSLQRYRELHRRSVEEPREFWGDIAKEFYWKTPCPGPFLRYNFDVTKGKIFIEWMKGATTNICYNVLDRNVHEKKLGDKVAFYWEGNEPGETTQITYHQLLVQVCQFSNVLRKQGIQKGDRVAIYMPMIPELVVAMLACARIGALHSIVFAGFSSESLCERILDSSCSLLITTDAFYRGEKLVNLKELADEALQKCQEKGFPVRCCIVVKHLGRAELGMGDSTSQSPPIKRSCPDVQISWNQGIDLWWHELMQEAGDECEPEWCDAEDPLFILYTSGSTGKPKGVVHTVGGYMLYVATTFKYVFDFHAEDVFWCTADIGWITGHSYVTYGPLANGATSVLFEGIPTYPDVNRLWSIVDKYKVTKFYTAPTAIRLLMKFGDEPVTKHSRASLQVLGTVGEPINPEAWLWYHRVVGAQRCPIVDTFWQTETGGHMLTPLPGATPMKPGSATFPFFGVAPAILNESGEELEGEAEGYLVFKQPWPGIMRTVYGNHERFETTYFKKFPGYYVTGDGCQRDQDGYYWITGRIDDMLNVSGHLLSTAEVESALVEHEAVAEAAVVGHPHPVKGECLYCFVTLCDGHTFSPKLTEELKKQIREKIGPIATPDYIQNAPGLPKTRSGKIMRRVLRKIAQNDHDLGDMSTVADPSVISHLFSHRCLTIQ
For the compound `Cc1nn(-c2ccc(OC(F)F)cc2)c(N)c1C(=O)Nc1cccc(C(C)(F)F)c1` [Compound 171, 5-amino-N-(3-(1,1-difluoroethyl)phenyl)-1-(4-(difluoromethoxy)phenyl)-3-methyl-1H-pyrazole-4-carboxamide], the IC50 is over 0.1 µM.

For the compound `CCC(F)(F)c1cccc(NC(=O)c2nc(-c3ccc(OC(F)F)cn3)[nH]c2C)c1` [Compound 227, 2-(5-(difluoromethoxy)pyridin-2-yl)-N-(3-(1,1-difluoropropyl)phenyl)-5-methyl-1H-imidazole-4-carboxamide], the concentration for half-maximal inhibition (IC50) was over 0.1 µM. Consider `COc1ccc(N2N=C(C)C(Cl)(C(=O)Nc3cccc(C(C)(F)F)c3)C2=O)cc1` (stereo not drawn) [Compound 202, 4-chloro-N-(3-(1,1-difluoroethyl)phenyl)-1-(4-methoxyphenyl)-3-methyl-5-oxo-4,5-dihydro-1H-pyrazole-4-carboxamide], for which the half-inhibitory concentration (IC50) was in the range of 0.001 to 0.1 µM. Turning to `CCC(F)(F)c1cccc(NC(=O)C2(Cl)C(=O)N(c3ccc(OC(F)F)cc3)N=C2C)c1` (stereo not drawn) [Compound 163, 4-chloro-1-(4-(difluoromethoxy)phenyl)-N-(3-(1,1-difluoropropyl)phenyl)-3-methyl-5-oxo-4,5-dihydro-1H-pyrazole-4-carboxamide], the half-inhibitory concentration (IC50) was under 0.001 µM. As for `CCC1(C(=O)Nc2cccc(C(C)(F)F)c2)C(=O)N(c2ccc(OC(F)F)c(-c3ccccc3)c2)N=C1C` (stereo not drawn) [Compound 100, N-(3-(1,1-difluoroethyl)phenyl)-1-(6-(difluoromethoxy)-[1,1′-biphenyl]-3-yl)-4-ethyl-3-methyl-5-oxo-4,5-dihydro-1H-pyrazole-4-carboxamide], the figure is over 0.1 µM. As to `CCC(F)(F)c1cccc(NC(=O)C2C(=O)N(c3cc(Cc4ccccc4)c(OC)c(-c4ccccc4)c3)N=C2C)c1` (stereo not drawn) [Compound 121, 1-(5-benzyl-6-methoxy-[1,1′-biphenyl]-3-yl)-N-(3-(1,1-difluoropropyl)phenyl)-3-methyl-5-oxo-4,5-dihydro-1H-pyrazole-4-carboxamide], the IC50 was in the range of 0.001 to 0.1 µM. On to `CCC(F)(F)c1cccc(NC(=O)c2cnc(-c3ccc(OC(F)F)cc3)nc2C)c1` [Compound 143, 2-[4-(difluoromethoxy)phenyl]-N-[3-(1,1-difluoropropyl)phenyl]-4-methyl-pyrimidine-5-carboxamide], for which the concentration for half-maximal inhibition (IC50) is over 0.1 µM. As to `CCC(F)(F)c1cccc(NC(=O)c2c(C)nn(-c3ccc(OC)cc3)c2C(=O)OC)c1` [Compound 234, methyl 4-((3-(1,1-difluoropropyl)phenyl)carbamoyl)-1-(4-methoxyphenyl)-3-methyl-1H-pyrazole-5-carboxylate], the concentration for half-maximal inhibition (IC50) is over 0.1 µM.

Consider `CCC(F)(F)c1cccc(NC(=O)c2nc(-c3ccc(OC)cc3)oc2C)c1` [Compound 116, N-(3-(1,1-difluoropropyl)phenyl)-2-(4-methoxyphenyl)-5-methyloxazole-4-carboxamide], for which the IC50 is over 0.1 µM. On to `Cc1nn(-c2ccc(OC(F)F)cc2)cc1C(=O)Nc1cccc(C(C)(F)F)c1` [Compound 196, N-(3-(1,1-difluoroethyl)phenyl)-1-(4-(difluoromethoxy)phenyl)-3-methyl-1H-pyrazole-4-carboxamide], for which the IC50 was in the range of 0.001 to 0.1 µM. As for `CCCC1(C(=O)Nc2cccc(C(C)(F)F)c2)C(=O)N(c2ccc(OC(F)F)cc2)N=C1C` (stereo not drawn) [Compound 158, N-(3-(1,1-difluoroethyl)phenyl)-1-(4-(difluoromethoxy)phenyl)-3-methyl-5-oxo-4-propyl-4,5-dihydro-1H-pyrazole-4-carboxamide], the figure is over 0.1 µM; as for `COc1ccc(-c2nc(C(=O)Nc3cccc(C(C)(F)F)c3)c(C)o2)cc1` [Compound 153, N-[3-(1,1-difluoroethyl)phenyl]-2-(4-methoxyphenyl)-5-methyl-oxazole-4-carboxamide], over 0.1 µM; as for `CCC(F)(F)c1cccc(NC(=O)c2nc(-c3ccc(OC(F)F)c(-c4cccnc4)c3)oc2C)c1` [Compound 221, 2-(4-(difluoromethoxy)-3-(pyridin-3-yl)phenyl)-N-(3-(1,1-difluoropropyl)phenyl)-5-methyloxazole-4-carboxamide], over 0.1 µM.

With `CCC(F)(F)c1cccc(NC(=O)c2oc(-c3ccc(OC)cc3)nc2C)c1` [Compound 136, N-(3-(1,1-difluoropropyl)phenyl)-2-(4-methoxyphenyl)-4-methyloxazole-5-carboxamide], the IC50 lay within 0.001 to 0.1 µM. Turning to `CCC(F)(F)c1cccc(NC(=O)c2c(C)[nH]c(-c3ccc(OC)cc3)c2O)c1` [Compound 235, N-(3-(1,1-difluoropropyl)phenyl)-4-hydroxy-5-(4-methoxyphenyl)-2-methyl-1H-pyrrole-3-carboxamide], the IC50 was over 0.1 µM. As for `COc1ccc(-c2nc(C)c(C(=O)Nc3cccc(C(C)(F)F)c3)o2)cc1` [Compound 142, N-(3-(1,1-difluoroethyl)phenyl)-2-(4-methoxyphenyl)-4-methyloxazole-5-carboxamide], the figure is over 0.1 µM.

With `CCC(F)(F)c1cccc(NC(=O)c2c(C)nn(-c3ccc(OC)cc3)c2F)c1` [Compound 229, N-(3-(1,1-difluoropropyl)phenyl)-5-fluoro-1-(4-methoxyphenyl)-3-methyl-1H-pyrazole-4-carboxamide], the half-inhibitory concentration (IC50) lay in the range of 0.001 to 0.1 µM. Turning to `Cc1nn(-c2ccc(OC(F)F)c(-c3cccnc3)c2)c(OC(=O)N2CCN(CCO)CC2)c1C(=O)Nc1cccc(C(C)(F)F)c1` [Compound 187, 4-((3-(1,1-difluoroethyl)phenyl)carbamoyl)-1-(4-(difluoromethoxy)-3-(pyridin-3-yl)phenyl)-3-methyl-1H-pyrazol-5-yl 4-(2-hydroxyethyl)piperazine-1-carboxylate], the 50% inhibitory concentration (IC50) is over 0.1 µM. In the case of `CCC(F)(F)c1cccc(NC(=O)c2cc(-c3ccc(OC(F)F)c(-c4ccccc4)n3)[nH]c2C)c1` [Compound 223, 5-(5-(difluoromethoxy)-6-phenylpyridin-2-yl)-N-(3-(1,1-difluoropropyl)phenyl)-2-methyl-1H-pyrrole-3-carboxamide], the concentration for half-maximal inhibition (IC50) is over 0.1 µM. The figure for `CCC(F)(F)c1cccc(NC(=O)c2cc(C)nc(-c3ccc(OC(F)F)cn3)c2)c1` [Compound 257, 5'-(difluoromethoxy)-N-(3-(1,1-difluoropropyl)phenyl)-6-methyl-[2,2′-bipyridine]-4-carboxamide] is over 0.1 µM; for `CC1=NN(c2ccc(C=C(c3ccccc3)c3ccccc3)c(-c3cccnc3)c2)C(=O)C1C(=O)Nc1cccc(C(C)(F)F)c1` (stereo not drawn) [Compound 109] it is 0.001 to 0.1 µM. On to `COc1c(C)cc(N2N=C(C)C(C(=O)Nc3cccc(C(C)(F)F)c3)C2=O)cc1-c1ccccc1` (stereo not drawn) [Compound 180, N-[3-(1,1-difluoroethyl)phenyl]-1-(4-methoxy-3-methyl-5-phenyl-phenyl)-3-methyl-5-oxo-4H-pyrazole-4-carboxamide], for which the IC50 lay within 0.001 to 0.1 µM. As for `CCOc1c(C(=O)Nc2cccc(C(C)(F)F)c2)c(C)nn1-c1ccc(OC(F)F)cc1` [Compound 201, N-(3-(1,1-difluoroethyl)phenyl)-1-(4-(difluoromethoxy)phenyl)-5-ethoxy-3-methyl-1H-pyrazole-4-carboxamide], the figure is over 0.1 µM; as for `Cc1oc(-c2ccc3cc[nH]c3c2)nc1C(=O)Nc1cccc(C(C)(F)F)c1` [Compound 107, N-[3-(1,1-difluoroethyl)phenyl]-2-(1H-indol-6-yl)-5-methyl-oxazole-4-carboxamide], over 0.1 µM; as for `CC(F)(F)c1cccc(NC(=O)c2cnc(-c3ccc(OC(F)F)cc3)nc2)c1` [Compound 173, N-(3-(1,1-difluoroethyl)phenyl)-2-(4-(difluoromethoxy)phenyl)pyrimidine-5-carboxamide], over 0.1 µM. As to `Cc1nn(-c2ccc(OC(F)F)c(-c3cccnc3)c2)cc1C(=O)Nc1cccc(C(C)(F)F)c1` [Compound 182, N-(3-(1,1-difluoroethyl)phenyl)-1-(4-(difluoromethoxy)-3-(pyridin-3-yl)phenyl)-3-methyl-1H-pyrazole-4-carboxamide], the half-maximal inhibitory concentration (IC50) lay within 0.001 to 0.1 µM.

As to `CC(=O)c1c(C(=O)Nc2cccc(C(C)(F)F)c2)c(C)nn1-c1ccc(OC(F)F)cc1` [Compound 193, 5-acetyl-N-(3-(1,1-difluoroethyl)phenyl)-1-(4-(difluoromethoxy)phenyl)-3-methyl-1H-pyrazole-4-carboxamide], the concentration for half-maximal inhibition (IC50) is over 0.1 µM. Take `CC1=NN(c2ccc(OC(F)F)cc2)C(=O)[C@@]1(C)C(=O)Nc1cccc(C(C)(F)F)c1` [Compound 169, (4R)—N-(3-(1,1-difluoroethyl)phenyl)-1-(4-(difluoromethoxy)phenyl)-3,4-dimethyl-5-oxo-4,5-dihydro-1H-pyrazole-4-carboxamide]: the IC50 is over 0.1 µM. In the case of `Cc1nn(-c2ccc(OC(F)F)cc2)c(C2CC2)c1C(=O)Nc1cccc(C(C)(F)F)c1` [Compound 145, 5-cyclopropyl-N-[3-(1,1-difluoroethyl)phenyl]-1-[4-(difluoromethoxy)phenyl]-3-methyl-pyrazole-4-carboxamide], the half-maximal inhibitory concentration (IC50) lay in the range of 0.001 to 0.1 µM. On to `CCC(F)(F)c1cccc(NC(=O)c2cc(C)nc(-c3ccc(OC(F)F)cc3)c2)c1` [Compound 102, 2-[4-(difluoromethoxy)phenyl]-N-[3-(1,1-difluoropropyl)phenyl]-6-methyl-pyridine-4-carboxamide], for which the IC50 was over 0.1 µM. As to `Cc1nc(-c2ccc(OC(F)F)cc2)cnc1C(=O)Nc1cccc(C(C)(F)F)c1` [Compound 133, N-(3-(1,1-difluoroethyl)phenyl)-5-(4-(difluoromethoxy)phenyl)-3-methylpyrazine-2-carboxamide], the half-inhibitory concentration (IC50) is over 0.1 µM. For the compound `Cc1ncc(-c2ccc(OC(F)F)cc2)nc1C(=O)Nc1cccc(C(C)(F)F)c1` [Compound 126, N-(3-(1,1-difluoroethyl)phenyl)-6-(4-(difluoromethoxy)phenyl)-3-methylpyrazine-2-carboxamide], the concentration for half-maximal inhibition (IC50) is over 0.1 µM. With “N-(3-(1,1-difluoroethyl)phenyl)-2-(6-(difluoromethoxy)-[1,1′-biphenyl]-3-yl)-4-methyloxazole-5-carboxamide [Compound 115]”, the half-inhibitory concentration (IC50) is over 0.1 µM.
